Where two headings read alike, the source gives them in different places.
Tests used:
RBL-2H3 cells [1] = experiment: Antigen (anti-DNP IgE plus DNP-BSA)-induced degranulation (β-hexosaminidase release) assay; type: cell-based; conditions: Rattus norvegicus; for IC50: RBL-2H3, read-out: Inhibition of Antigen-Induced Degranulation IC50
Protocol: (§1) The mucosal mast-cell-derived rat basophilic leukemia cells (RBL-2H3) were purchased from Bioresource Collection and Research Center (Hsin-Chu, Taiwan). The cells were cultured in DMEM containing 10% FBS, 100 U/mL penicillin, and 100 μg/mL streptomycin in 10 cm cell culture dishes at 37 °C in a humidified chamber with 5% CO2 in air. The level of degranulation in RBL-2H3 cells was evaluated using β-hexosaminidase release assay induced by A23187 or antigen as reported before with some modifications. Briefly, the cells were seeded in a 96-well plate (2 × 10^4 cells/well, for the A23187-induced assay) or a 48-well plate (3 × 10^4 cells/well, for the antigen-induced assay) overnight. The cells for the antigen-induced assay were sensitized with anti-DNP IgE (0.5 μg/mL; Sigma) during seeding overnight. RBL-2H3 cells were then treated with the samples (0.5, 5, and 50 μM) for 30 min in Tyrode’s buffer with a maximal DMSO dose of 0.5%. For the A23187-induced assay, the cells were activated by addition of A23187 (final concentration 0.5 μM), while cells for the antigen-induced assay were activated by the addition of DNP-BSA (final concentration 100 ng/mL) for 30 min. Azelastine (10 μM) served as the positive control. The amount of β-hexosaminidase was detected using the method utilizing p-NAG as the substrate according to the procedure described before.

human neutrophils [2] = experiment: Elastase release in fMLF/CB-induced human neutrophils; type: cell-based; conditions: Neutrophil, read-out: Elastase Release in Human Neutrophils IC50
Protocol: (§2) The human neutrophils were obtained from venous blood of healthy adult volunteers (20–30 years old) following the reported procedure. Elastase release by the activated neutrophils was determined using elastase substrate (N-methoxysuccinyl-Ala-Ala-Pro-Val-p-nitroanilide) according to the previous methodology. The tested samples’ concentration was 1 to 10 μM and the total incubation time in fMLF/CB-induced cells was 15 min. Genistein was used as the positive control. Cytotoxicity test was performed based on the release of LDH stored in the cytoplasm out of the cells. Briefly, preheated (37 °C, 5 min, 1 mM CaCl2) human neutrophils (6 × 10^5 cells·mL^−1) were incubated with test compounds for 15 min. Total LDH release control was represented as completely lysed cells by 0.1% of Triton X-100 solution incubated with cells for 30 min. The cells were centrifuged at 4 °C for 200× g for 8 min, and LDH reagent was added to supernatant and reacted at room temperature for 30 min in the dark. The absorbance was then measured at 492 nm, and the LDH release was calculated and compared to the total LDH release set as 100%.

RBL-2H3 cells [3] = experiment: A23187-induced degranulation (β-hexosaminidase release) assay; type: cell-based; conditions: Rattus norvegicus; for IC50: RBL-2H3, read-out: Inhibition of A23187-Induced Degranulation IC50
Protocol: as §1

[4] = MTT cell viability assay in mast cells; type: cell-based; conditions: rat
Protocol: as §1
The viability of the RBL-2H3 cells in the presence of the samples (10 and 100 μM) was determined using the methylthiazole tetrazolium (MTT) assay according to a previous method.

[5] = parameters: method as in PMID 29763312; conditions: via reducing the levels of histamine and mouse mast cell proteinases; cited from earlier work
[6] = Lactate dehydrogenase (LDH) viability assay in human neutrophils; type: cell-based; conditions: human, human neutrophils; 10 μM; based on lactate dehydrogenase release; mean ± S.E.M. (n = 3); read-out: Cell viability, Human Neutrophils
Protocol: as §2

human neutrophils [7] = experiment: as above; type: cell-based; conditions: cell viability assay based on lactate dehydrogenase release
Protocol: as §2

[8] = target: T1, human neutrophil elastase (Homo sapiens, UniProt P08246); experiment: Elastase enzymatic activity (cell-free); type: biochemical; conditions: mean ± S.E.M. (n = 3)
T1 construct: followed by fMLF (0.1 μM) for 20 min to release the elastase from the cells; endogenous in cells; host or cells: human neutrophils; degranulation supernatant after CB/fMLF stimulation
T1 sequence (P08246 30-247 limits assumed): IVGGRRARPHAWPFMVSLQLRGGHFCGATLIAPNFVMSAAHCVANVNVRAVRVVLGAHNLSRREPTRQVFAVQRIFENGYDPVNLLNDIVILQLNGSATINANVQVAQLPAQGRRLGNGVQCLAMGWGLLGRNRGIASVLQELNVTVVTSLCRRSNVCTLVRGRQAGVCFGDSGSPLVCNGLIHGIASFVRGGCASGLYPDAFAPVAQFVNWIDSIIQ
Protocol: The compounds were further tested for direct inhibition of elastase enzymatic activity. The neutrophil suspension (6 × 10^5 cells mL^−1) was preheated for 5 min in the presence of CaCl2 (1 mM) at 37 °C. Priming agent CB (1.5 μg mL^−1) was added for 2 min, followed by fMLF (0.1 μM) for 20 min to release the elastase from the cells. After centrifugation at 1000 g for 5 min at 4 °C, the supernatant containing elastase was preheated at 37 °C for 5 min, and the test compounds were added. Then, 0.1 mM of substrate methoxysuccinyl-Ala-Ala-Pro-Val-p-nitroanilide was added for 10 min. The effect of the compounds on elastase enzymatic activity was quantified by measuring the absorbance at 405 nm.

[9] = RBL-2H3, read-out: Inhibition of antigen-induced degranulation
[10] = RBL-2H3, read-out: Inhibition of A23187-induced degranulation
[11] = 100 μM, MTT viability assay, compared with untreated control (DMSO), n = 3, read-out: Cell Viability, RBL-2H3

SMILES | IC50 (RBL-2H3 cells [1]) | IC50 (human neutrophils [2]; Homo sapiens) | IC50 (RBL-2H3 cells [3]) | viability at 100 µM [4, 11] | viability at 15 min, 10 µM [6] | Toxicity to human neutrophils (in words) (human neutrophils [7]) | IC50 [8] | also measured
CC(C)=CCc1cc(C=O)ccc1O [4-hydroxy-3-(3-methylbut-2-enyl)benzaldehyde] | > 100 µM | > 10 µM | > 100 µM |  |  |  |  | viability at 100 µM [4]: > 90%
COC(=O)[C@]1(Cc2ccc(O)c(CC=C(C)C)c2)OC(=O)C(O)=C1c1ccc(O)cc1 [Butyrolactone I (1), butyrolactone I] | 41.6 µM | 2.3 ± 0.27 µM | 39.7 µM | > 90% | 94.1 ± 2.31% | non-toxic | 16.7 ± 2.64 µM | inhibition at 10 µM (RBL-2H3 cells [1]; [9]): 30%; inhibition at 100 µM (RBL-2H3 cells [1]; [9]): 87%; Effect on ovalbumin-induced allergy symptoms [5]: alleviating ovalbumin-induced allergy symptoms; inhibition at 10 µM (RBL-2H3 cells [3]; [10]): 26%; inhibition at 100 µM (RBL-2H3 cells [3]; [10]): 98.7%
CN1CCCC(n2nc(Cc3ccc(Cl)cc3)c3ccccc3c2=O)CC1 (stereo not drawn) [Azelastine, reference compound] |  |  |  |  |  |  |  | inhibition at 10 µM (RBL-2H3 cells [1]; RBL-2H3, 10 μM, mean ± S.E.M. (n = 3), read-out: Inhibition of antigen-induced degranulation): 35.5%; inhibition at 10 µM (RBL-2H3 cells [3]; RBL-2H3, 10 μM, mean ± S.E.M. (n = 3), read-out: Inhibition of A23187-induced degranulation): 34.5%
O=c1c(-c2ccc(O)cc2)coc2cc(O)cc(O)c12 [Genistein, reference compound] |  |  |  |  |  |  |  | IC50 (human neutrophils [2]; fMLF/cytochalasin B (CB)-induced human neutrophils, mean ± S.E.M. (n = 3)): 32.7 µM
C=C1C[C@]2(O)[C@@]3(C)CCC(=O)C(C)(C)C3=C(O)C(=O)[C@@]2(C)[C@@H]2C(=O)O[C@@](C)(C(=O)OC)C(=O)[C@@]12C [Terretonin (3), terretonin] | > 100 µM | > 10 µM | > 100 µM | > 90% |  |  |  | 
COC(=O)[C@]1(Cc2ccc(O)c(CC3OC3(C)C)c2)OC(=O)C(O)=C1c1ccc(O)cc1 (stereo partly drawn) [Butyrolactone III (2), butyrolactone III] | > 100 µM | > 10 µM | > 100 µM | > 90% | 98.2 ± 1.77% | non-toxic | > 30 µM | 

From paper PMC8199578, “Anti-Inflammatory, Antiallergic, and COVID-19 Main Protease (M^pro) Inhibitory Activities of Butenolides from a Marine-Derived Fungus Aspergillus terreus” (Molecules, 2021)
